Laboratory results reported in patent US5830855A, “Lipodepsipeptides as antifungal and fungicidal agents” (priority 1996, dated 1998).
Converted amounts (≈) assume the structure as drawn.

Tests used:
[1] = system: Aspergillus fumigatus; test: Broth microdilution MIC; assay type: cell-based; settings: Table 1 (MICs), 16 isolates, 48 hr
Method: (§1) Medium: Liquid RPMI 1640 (RPMI) medium with L-glutamine and without sodium bicarbonate (Sigma Chemical Co., R-6504; St. Louis, Mo.) buffered with 0.165M MOPS (34.54 g/liter) was used for in vitro antifungal tests. The medium was adjusted to pH 7.0 with 10M NaOH and filter sterilized.
(§2) Lipodepsipeptide Dilutions: All stock drug solution concentrations were at least 10-fold higher than the highest concentration tested. AmB, ketoconazole, and the test compounds (SR-E, ST-B, and SS-A) were dissolved in sterile distilled water, 0.2N HCl, and 0.001N HCl, respectively. Each stock solution was diluted to 2× the highest concentration of drug tested with RPMI. Two-fold dilutions were made with RPMI medium.
(§3) Preparation of Inoculum Suspensions: On Sabouraud dextose agar (SDA; BBL, Becton and Dickinson and Co., Cockeysville, Md.) all isolates were subcultured at least twice before use to ensure purity and viability. Candida spp. and Saccharomyces cerevisiae were grown for 24 hr at 35° C. Isolates of Cryptococcus neoformans were grown for 48 hr at 35° C. Yeast cells from at least five 1-mm-diameter colonies were suspended in 5 ml of sterile 0.85% saline. The resulting suspension was vortexed for 15 sec. The turbidity of each mixed suspension was measured at 530 nm and adjusted to 1×10^6 to 5×10^6 CFU/ml by the NCCLS spectrophotometric method described by National Committee for Clinical Laboratory Standards. 1992. Reference method for broth dilution antifungal susceptibility testing of yeasts; proposed standard, NCCLS document M27-P (ISBN 1-56238-186-5). NCCLS, Villanova. The final transmission of each yeast suspension ranged from 85-87%.
(§4) Aspergillus fumigatus and Mucor spp. were grown for 1 wk at 35° C. The dermatophytes, Microsporum spp. and Trichophyton spp., were grown for two wk at 30° C. Fungal spores were washed from the plates of all good spore formers (A. fumigatus, Mucor spp., Microsporum canis and Trichophyton spp.) by placing 5 ml of 0.85% saline with 0.2% Tween 80 on the plates and mixing with an inoculating loop. The spore/mycelium suspension was drawn off with a pipette and allowed to settle for at least 5 min. For the poor spore-forming Microsporum audouinii, the procedure was the same except the spore/mycelial suspension was homogenized with a ground glass tissue homogenizer and then allowed to settle for at least 5 min. A small amount of the supernatant was transferred to 5 ml of sterile saline and vortexed. The stock suspensions of all filamentous fungi were measured at 530 nm and adjusted to 85-87% transmission. The concentration (1×10^6 to 5×10^6 CFU/ml) was determined by hemacytometer count or plate count on SDA. All stock suspensions were diluted 1000-fold with RPMI, or 2× the final desired test inocula. The 2× inoculum was diluted 1:1 when the wells were inoculated, and the desired inoculum size was achieved.
(§5) Broth Microdilution Test: Broth microdilution tests were performed using sterile, disposable, multiwell microdilution plates (96 round U-bottom wells) (Falcon 3077; Becton and Dickinson Labware, Lincoln Park, N.J.). The drugs (2× concentrations) were dispensed into the wells of rows number 1 to 10 of the microdilution plates in 100 μl volumes from highest drug concentration to lowest drug concentration. Each well was inoculated with 100 μl of the corresponding 2× concentrated fungal suspension. The wells of row 11 contained the inoculum with drug-free media as a positive growth control and the wells of row 12 contained uninoculated-drug-free medium as a sterility control.
(§6) Incubation and Scoring of MIC: All cultures were incubated without shaking at the temperature used during subculture. Incubation times were 48 hr for Candida spp., S. cerevisiae, A. fumigatus, and Mucor spp; 72 hr for C. neoformans; and 7 days for Microsporum and Trichophyton spp. […]

[2] = system: Candida albicans; test: Broth microdilution MIC; assay type: cell-based; settings: Table 1 (MICs); Candida albicans, 20 isolates; RPMI pH 7.0, 48 hr; Ktz read at score 2, others at score 0
Method: as §1, §2, §3, §4, §5, §6

[3] = system: Candida kefyr; test: Broth microdilution MIC; assay type: cell-based; settings: Table 1 (MICs), 1 isolate, 48 hr
Method: as §1, §2, §3, §4, §5, §6

[4] = system: Candida krusei; test: Broth microdilution MIC; assay type: cell-based; settings: Table 1 (MICs), 2 isolates, 48 hr
Method: as §1, §2, §3, §4, §5, §6

[5] = system: Candida lusitaniae; test: Broth microdilution MIC; assay type: cell-based; settings: Table 1 (MICs), 2 isolates, 48 hr
Method: as §1, §2, §3, §4, §5, §6

[6] = system: Candida parapsilosis; test: Broth microdilution MIC; assay type: cell-based; settings: Table 1 (MICs), 2 isolates, 48 hr
Method: as §1, §2, §3, §4, §5, §6

[7] = system: Candida rugosa; test: Broth microdilution MIC; assay type: cell-based
Method: as §1, §2, §3, §4, §5, §6

[8] = system: Candida tropicalis; test: Broth microdilution MIC; assay type: cell-based
Method: as §1, §2, §3, §4, §5, §6

[9] = system: Cryptococcus neoformans; test: Broth microdilution MIC; assay type: cell-based
Method: as §1, §2, §3, §4, §5, §6

[10] = system: Microsporum spp.; test: Broth microdilution MIC; assay type: cell-based; settings: Table 1 (MICs), 2 isolates, 7 days
Method: as §1, §2, §3, §4, §5, §6

[11] = system: Mucor spp.; test: Broth microdilution MIC; assay type: cell-based; settings: Table 1 (MICs), 5 isolates, 48 hr
Method: as §1, §2, §3, §4, §5, §6

[12] = system: Saccharomyces cerevisiae; test: Broth microdilution MIC; assay type: cell-based; settings: Table 1 (MICs), 1 strain tested more than once (control ATCC 36375), 48 hr
Method: as §1, §2, §3, §4, §5, §6

[13] = system: Trichophyton spp.; test: Broth microdilution MIC; assay type: cell-based; settings: Table 1 (MICs), 3 isolates, 7 days
Method: as §1, §2, §3, §4, §5, §6

[14] = system: Aspergillus fumigatus; test: Minimum Fungicidal Concentration (MFC); assay type: cell-based; settings: Table 2, 16 isolates, 48 hr
Method: as §1, §2, §3, §4, §5, §6

[15] = system: Candida kefyr; test: Minimum Fungicidal Concentration (MFC); assay type: cell-based; settings: Table 2, 1 isolate, 24 hr
Method: as §1, §2, §3, §4, §5, §6

[16] = system: Candida krusei; test: Minimum Fungicidal Concentration (MFC); assay type: cell-based; settings: Table 2, 2 isolates, 24 hr
Method: as §1, §2, §3, §4, §5, §6

[17] = system: Candida lusitaniae; test: Minimum Fungicidal Concentration (MFC); assay type: cell-based; settings: Table 2, 2 isolates, 24 hr
Method: as §1, §2, §3, §4, §5, §6

[18] = system: Candida parapsilosis; test: Minimum Fungicidal Concentration (MFC); assay type: cell-based; settings: Table 2, 2 isolates, 24 hr
Method: as §1, §2, §3, §4, §5, §6

[19] = system: Candida rugosa; test: Minimum Fungicidal Concentration (MFC); assay type: cell-based; settings: Table 2, 2 isolates, 24 hr
Method: as §1, §2, §3, §4, §5, §6

[20] = system: Candida tropicalis; test: Minimum Fungicidal Concentration (MFC); assay type: cell-based; settings: Table 2, 2 isolates, 24 hr
Method: as §1, §2, §3, §4, §5, §6

[21] = system: Cryptococcus neoformans; test: Minimum Fungicidal Concentration (MFC); assay type: cell-based; settings: Table 2, 14 isolates, 48 hr
Method: as §1, §2, §3, §4, §5, §6

[22] = system: Microsporum spp.; test: Minimum Fungicidal Concentration (MFC); assay type: cell-based; settings: Table 2, 2 isolates, 7 d
Method: as §1, §2, §3, §4, §5, §6

[23] = system: Mucor spp.; test: Minimum Fungicidal Concentration (MFC); assay type: cell-based; settings: Table 2, 5 isolates, 24 hr
Method: as §1, §2, §3, §4, §5, §6

[24] = system: Saccharomyces cerevisiae; test: Minimum Fungicidal Concentration (MFC); assay type: cell-based; settings: Table 2, 1 strain tested more than once, 24 hr
Method: as §1, §2, §3, §4, §5, §6

[25] = system: Trichophyton spp.; test: Minimum Fungicidal Concentration (MFC); assay type: cell-based; settings: Table 2, 3 isolates, 7 d
Method: as §1, §2, §3, §4, §5, §6

[26] = system: clinical isolates (fungi); test: Broth microdilution MIC, fungal isolates overall; assay type: cell-based; settings: range over all clinical isolates
Text: Most of the fungal strains used in the tests were clinical isolates obtained from the University of Texas Health Science Center at San Antonio Fungus Testing Laboratory (San Antonio, Tex.) and the remaining isolates were ATCC strains.
as §1
Lipodepsipeptide Dilutions: All stock drug solution concentrations were at least 10-fold higher than the highest concentration tested. […]
(§7) Preparation of Inoculum Suspensions: On Sabouraud dextose agar (SDA; BBL, Becton and Dickinson and Co., Cockeysville, Md.) all isolates were subcultured at least twice before use to ensure purity and viability. […] The turbidity of each mixed suspension was measured at 530 nm and adjusted to 1×10^6 to 5×10^6 CFU/ml by the NCCLS spectrophotometric method described by National Committee for Clinical Laboratory Standards. […]
(§8) Aspergillus fumigatus and Mucor spp. were grown for 1 wk at 35° C. […] The stock suspensions of all filamentous fungi were measured at 530 nm and adjusted to 85-87% transmission. The concentration (1×10^6 to 5×10^6 CFU/ml) was determined by hemacytometer count or plate count on SDA. […]

[27] = system: fungal isolates; test: Fungicidal activity (MFC), fungal isolates overall; assay type: cell-based, fungi; settings: Table 2 organisms
Method: as §1, §2, §7, §8

Compound: C[C@@H]1[C@H](O)[C@@H](C)/C=C/C=C/C=C/C=C/C=C/C=C/C=C/[C@H](O[C@@H]2O[C@H](C)[C@@H](O)[C@H](N)[C@@H]2O)C[C@@H]2O[C@](O)(C[C@@H](O)C[C@@H](O)[C@H](O)CC[C@@H](O)C[C@@H](O)CC(=O)O[C@H]1C)C[C@H](O)[C@H]2C(=O)O [AmB, amphotericin B, reference compound]
- MIC range [1]: 0.15 to 1.25 µg/mL
- MIC range [2]: 0.04 to 0.3 µg/mL
- MIC (μg/ml) range [3]: 0.3 µg/mL (≈ 0.325 µM)
- MIC (μg/ml) range [4]: 0.3 to 0.6 µg/mL
- MIC range [5]: 0.3 µg/mL (≈ 0.325 µM)
- MIC range [6]: 0.6 µg/mL (≈ 0.649 µM)
- MIC range ([7]; Table 1 (MICs), Candida rugosa, 2 isolates, 48 hr): 0.3 to 1.25 µg/mL
- susceptibility of one strain of C. rugosa ([7]; one strain of C. rugosa (AmB-resistant)): resistance
- MIC (μg/ml) range ([8]; Table 1 (MICs), Candida tropicalis, 2 isolates, 48 hr): 0.3 to 1.25 µg/mL
- susceptibility of one strain of C. tropicalis ([8]; one strain of C. tropicalis): resistance
- MIC range ([9]; Table 1 (MICs), Cryptococcus neoformans, 14 isolates, 72 hr): 0.08 to 1.25 µg/mL
- MIC, one strain of C. neoformans ([9]; one strain of C. neoformans, very sensitive to ST-B, somewhat resistant to AmB): 1.25 µg/mL
- MIC range [10]: 0.04 to 0.3 µg/mL
- MIC range [11]: 0.02 to 0.15 µg/mL
- MFC (μg/ml) range [12]: 0.3 µg/mL (≈ 0.325 µM)
- MIC range [13]: 0.3 to 0.6 µg/mL
- MFC (μg/ml) range [14]: 0.6 to 2.5 µg/mL
- MFC (μg/ml) range [15]: 0.3 µg/mL (≈ 0.325 µM)
- MFC (μg/ml) range [16]: 0.6 µg/mL (≈ 0.649 µM)
- MFC (μg/ml) range [17]: 0.6 µg/mL (≈ 0.649 µM)
- MFC (μg/ml) range [18]: 1.25 µg/mL (≈ 1.35 µM)
- MFC (μg/ml) range [19]: 0.6 to 2.5 µg/mL
- MFC (μg/ml) range [20]: 0.6 to 1.25 µg/mL
- MFC (μg/ml) range [21]: 0.15 to 1.25 µg/mL
- MFC (μg/ml) range [22]: 0.08 to 0.3 µg/mL
- MFC (μg/ml) range [23]: ≤0.02 to 0.3 µg/mL
- MFC (μg/ml) range [24]: 1.25 µg/mL (≈ 1.35 µM)
- MFC (μg/ml) range [25]: 0.3 to 0.6 µg/mL
- susceptibility (MIC) of the clinical isolates [26]: 0.02-1.25 g/ml
- fungicidal activity [27]: fungicidal activity against most of the strains tested
